# From patent publication US6646151B1 (dated 2003)
row,melting point [°C],Structure (SMILES)
1,102 to 103,CO/C=C(/C(=O)OC)c1ccccc1CO/N=C(C)/C(=N/OC)c1ccc(OCc2cccc(C(F)(F)F)c2)cc1
2,91 to 93,C#CCO/N=C(/C(C)=NOCc1ccccc1C(=COC)C(=O)OC)c1ccc(F)cc1
3,90 to 93,CCO/N=C(/C(C)=NOCc1ccccc1C(=NOC)C(=O)OC)c1ccc(Oc2ccc(Cl)cc2)cc1
